Data: patent EP0180581B2, “DRUG PREPARATIONS OF REDUCED TOXICITY” (THE LIPOSOME COMPANY, INC., priority 1984, dated 1985)
Where two headings read alike, the source gives them in different places.

Tests used:
Swiss Webster mice [1] = test: Toxicity (lethality) of streptomycin administered with and without ligand, subcutaneous; type: in vivo; conditions: streptomycin 1000 mg/kg subcutaneously, ligand 1:3 molar ratio, mixed immediately prior to administration
[2] = LD50 of aminoglycoside antibiotics with and without phosphorylcholine, subcutaneous; type: in vivo; conditions: mouse, in vivo, sc, mg aminoglycoside antibiotic per kg body weight, Swiss Webster mice, survivors after 24 hours, read-out: LD₅₀
Experimental: (§1) In order to determine the LD₅₀ of the aminoglycoside preparations a quantity of antibiotic was dissolved in 20 m| distilled water with or without phosphorylcholine to achieve a final 1:3 molar ratio of antibiotic to ligand. Then, 0.6 m| aliquots of serial dilutions of the aminoglycoside preparations were injected subcutaneously into Swiss Webster mice (ten animals per group, average weight 23 g each). After 24 hours the number of survivors in each group was determined and the LD₅₀ and 95% confidence limits for each were computed according to the Spearman-Karber Method for Quantal Data (from Finney, 1952, Statistical Method in Biological Assay, Hafner Pub. Co., New York).

patients = conditions: cited from earlier work
[3] = in vitro; cited from earlier work
mice = test: Acute toxicity of streptomycin-ligand preparations, subcutaneous (Table II); type: in vivo; conditions: for effectiveness in reducing the toxicity of streptomycin: ligand mixed with streptomycin (1:3 or 1:1 molar ratio), 1000 mg streptomycin per kg subcutaneously in mice
Swiss Webster mice [4] = test: LD50 of aminoglycoside antibiotics with and without phosphorylcholine, subcutaneous; type: in vivo; conditions: mg aminoglycoside antibiotic per kg body weight, survivors after 24 hours
Experimental: as §1

C. albicans = test: Minimum inhibitory concentration for C. albicans; type: cell-based; conditions: 50% growth inhibition, overnight at 35° C
Experimental: The minimum inhibitory concentration (M.I.C.) of the amphotericin B preparations for C. albicans was determined as follows: each of the 5 preparations was serially diluted in a 96 round-bottomed well plate, using 1/2 step dilutions of drug in 50 »| Mico-broth per well and 3 wells for each dilution step. After dilutions were completed, each well received 50 »| broth containing 10³ cells of C. albicans. Plates were incubated overnight at 35° C in a humidified atmosphere.

L cells = test: Cloning efficiency of L cells; type: cell-based
Experimental: Plastic petri dishes (35 mm diameter) were seeded with 50 L-cells per dish in 2 m| MEM plus 10% fetal calf serum containing one of the amphotericin B preparations (2 dishes per amphotericin B preparation). The dishes were incubated for 10 days and the cloned cultures were stained with crystal violet as described above.

erythrocytes = test: Hemolytic effect on erythrocytes (released hemoglobin); type: cell-based
L-cells [5] = test: Cytotoxicity for L-cells (50% growth inhibition); conditions: 72 hours at 37°C
male Swiss-Webster mice = conditions: mouse, in vivo, iv, 400 mg/kg
Experimental: Six male Swiss-Webster mice weighing 27 gms each were given a single intravenous injection of 400 mg/kg PEG-cholesterol.

L-cells [6] = conditions: mouse, 72 h
[7] = AmB preparations at 25 @g amphotericin B/m| medium, 10 days

## [H]/N=C(/N)N[C@H]1[C@H](O)[C@@H](O)[C@H](O[C@@H]2O[C@@H](C)[C@](O)(C=O)[C@H]2O[C@@H]2O[C@@H](CO)[C@H](O)[C@@H](O)[C@@H]2NC)[C@@H](N/C(N)=N\[H])[C@@H]1O [Streptomycin, streptomycin]
Swiss Webster mice [1]
  Lethality No. Dead/No. Inoculated: 7/8
  Percent Lethality: 87.5%
[2]
  LD50 at 24 h: 741 mg/kg
patients; 2g daily for 60 to 120 days
  patients manifesting some vestibular disturbance: ~75%
patients; dose reduced to 1g daily
  incidence of vestibular disturbance: 25%

## C[C@@H]1[C@H](O)[C@@H](C)/C=C/C=C/C=C/C=C/C=C/C=C/C=C/[C@H](O[C@@H]2O[C@H](C)[C@@H](O)[C@H](N)[C@@H]2O)C[C@@H]2O[C@](O)(C[C@@H](O)C[C@@H](O)[C@H](O)CC[C@@H](O)C[C@@H](O)CC(=O)O[C@H]1C)C[C@H](O)[C@H]2C(=O)O [amphotericin B]
[3]
  affinity for ergosterol compared to cholesterol: approximately ten times greater affinity

## C[N+](C)(C)CCOP(=O)([O-])OC[C@H](O)CO [glycerolphosphorylcholine]
mice; general statement on ligands
  effectiveness in reducing aminoglycoside toxicity: less effective

## O=P(O)(O)O[C@H]1[C@H](OP(=O)(O)O)[C@@H](OP(=O)(O)O)[C@H](OP(=O)(O)O)[C@@H](OP(=O)(O)O)[C@H]1OP(=O)(O)O [inositol hexaphosphate]
mice
  effectiveness in reducing the toxicity of streptomycin: very effective in reducing the toxicity of streptomycin

## C[N+](C)(C)CCOP(=O)(O)O [phosphorylcholine]
mice; general statement on ligands
  effectiveness in reducing aminoglycoside toxicity: very effective in reducing aminoglycoside toxicity
mice
  effectiveness in reducing the toxicity of streptomycin: very effective in reducing the toxicity of streptomycin

## NCCOP(=O)(O)O [phosphorylethanolamine]
mice; general statement on ligands
  effectiveness in reducing aminoglycoside toxicity: less effective

## Gentamycin
Swiss Webster mice [4]
  LD₅₀: 692 mg/kg

## Neomycin
Swiss Webster mice [4]
  LD₅₀: 371 mg/kg

## deoxycholate [DOC]
C. albicans
  Minimum Inhibitory Concentration of Amphotericin B, C. albicans: 5,000+ @g/m|
L cells; [7]
  Number of Clones, % of Control: 70.8%
  Number of Clones, Number of Colonies: 68
  Size of Colonies, % of Control: 92%
  Size of Colonies, Mean Diameter: 2.3
erythrocytes; concentration 1 @g/m|, 2% erythrocytes, 37°C, 20 hours
  OD550nm: 0.03
erythrocytes; concentration 2 @g/m|, 2% erythrocytes, 37°C, 20 hours
  OD550nm: 0.03
erythrocytes; concentration 2.5 @g/m|, 2% erythrocytes, 37°C, 20 hours
  OD550nm: 0.03
erythrocytes; concentration 15 @g/m|, 2% erythrocytes, 37°C, 20 hours
  OD550nm: 0.03
erythrocytes; concentration 30 @g/m|, 2% erythrocytes, 37°C, 20 hours
  OD550nm: 0.03
erythrocytes; concentration 60 @g/m|, 2% erythrocytes, 37°C, 20 hours
  OD550nm: 0.06
erythrocytes; concentration 125 @g/m|, 2% erythrocytes, 37°C, 20 hours
  OD550nm: 0.23
erythrocytes; concentration 250 @g/m|, 2% erythrocytes, 37°C, 20 hours
  OD550nm: 0.47
L-cells [5]
  Minimum Inhibitory Concentration of Amphotericin B, L cells: 250.0 @g/m|

## egg lysophosphatidylcholine
mice; mouse, in vivo
  effectiveness in reducing aminoglycoside toxicity: very effective in reducing aminoglycoside toxicity

## polyethylene glycol-cholesterol [PEG-Chol]
Male Swiss-Webster mice
  overt signs of toxicity: No overt signs of toxicity
C. albicans
  Minimum Inhibitory Concentration of Amphotericin B, C. albicans: 25,000+ @g/m|
L cells
  Number of Clones, Number of Colonies: 83
  Size of Colonies, Mean Diameter: 2.5
L cells; mouse, l cells, 240 h
  Number of Clones, % of Control: 86.5%
  Size of Colonies, % of Control: 100%
erythrocytes
  OD550nm: 0.03
L-cells [6]
  Minimum Inhibitory Concentration of Amphotericin B, L cells: 500.0+ @g/m|
